Measurements taken from US20230405023A1, “USE OF THE NAV1.6 SODIUM CHANNEL BLOCKER (S)-4-((1-BENZYLPYRROLIDIN-3-YL)(METHYL)AMINO)-2-FLUORO-5-METHYL-N(THIAZOL-4-YL)BENZENESULFONAMIDE, TOGETHER WITH STRONG INDUCERS OF CYTOCHROME P450 3A4, IN THE TREATMENT OF CONDITIONS ASSOCIATED WITH NAVI.6 ACTIVITY” (Xenon Pharmaceuticals Inc., priority 2020, published 2023).
Where two headings read alike, the source gives them in different places.

Legend:
[1] = Safety: treatment-emergent adverse events (TEAEs) in the pharmacokinetic study; format: in vivo, human
Description: (§1) In this open-label, randomized study, subjects received the following treatments: • Two single oral doses of 100 mg (2×50 mg) Compound A adult immediate release tablet formulation, fasted state, administered on Day 1 and Day 12. • Repeat doses of phenytoin 100 mg TID for 10 days (from Day 3 until the morning of Day 12).
A total of 15 subjects (83%) reported 101 TEAEs over the course of the study. Three treatment periods were defined: Day 1 to Day 3 (following Compound A dosing on Day 1 and prior to start of phenytoin dosing on Day 3) corresponds to the Compound A treatment period, Day 3 to Day 12 (following phenytoin dosing on Day 3 and prior to Compound A dosing on Day 12) corresponds to the phenytoin treatment period, and Day 12 to the follow-up visit (following Compound A dosing on Day 12) corresponds to the Compound A in combination with phenytoin treatment period.

[2] = Open-label randomized pharmacokinetic drug-drug interaction study: plasma PK of Compound A alone or with phenytoin; format: in vivo, human; conditions: for Cmax / AUC / Tmax / AUC(0-t) / AUC(0-inf) / half-life: human, plasma; for Cmax / AUC / Tmax / half-life: 100 mg; for AUC(0-t): read-out: mean AUC0-t; for AUC(0-inf): read-out: mean AUC0-inf; for half-life: read-out: elimination half-life (converted)
Description: as §1
(§2) Subjects fasted overnight for a minimum of 10 hours prior to dosing on Day 1 and Day 12. An oral dose of the Compound A IR tablet treatment was administered in the morning with approximately 240 mL of water at ambient temperature, to 1 subject per 2 minute intervals. Fasting continued for at least 4 hours following administration. Water was provided as needed until 1 hour pre-dose. Water was allowed beginning 1 hour after the administration of the drug.
(§3) On Day 3 to Day 11, an oral dose of phenytoin was administered TID with approximately 240 mL of water at ambient temperature, starting at 07:30, 15:30, and 23:30 to 1 subject per 2 minute intervals. On Day 12, an oral dose of phenytoin was administered in the morning with approximately 240 mL of water at ambient temperature, starting at 07:30 (1 hour prior to Compound A dosing) to 1 subject per 2 minute intervals.
(§4) The direct measurements of this study were the plasma, whole blood, urine, and saliva concentrations of Compound A and plasma concentrations for phenytoin.
The magnitude of DDI was described using GMR (with/without phenytoin) and associated 90% CI of the Cmax, AUC0-t, and AUC0-inf for Compound A.

[3] = Urinary excretion and renal clearance of Compound A in the pharmacokinetic study; format: in vivo, human; conditions: for mean amount excreted unchanged in urine / mean percentage of dose excreted unchanged in urine: over 48 hours following dosing
Description: as §1, §2, §3, §4

CYP3A4, CYP2D6, CYP2C9 = conditions: has been reported; cited from earlier work
[4] = with phenytoin 100 mg TID for 10 days (Day 12) vs Compound A alone
[5] = with vs without phenytoin comparison
[6] = Compound A 100 mg + phenytoin 100 mg TID
[7] = whole study (Compound A, phenytoin, combination)

**Q.** For `O=C1NC(=O)C(c2ccccc2)(c2ccccc2)N1` [phenytoin, reference compound], which “incidence of subjects with TEAEs” value ([1]; phenytoin alone from Day 3 to Day 12) is on record?
**A.** The value was 71%.

**Q.** Which “effect of phenytoin 100 mg TID on Compound A total systemic exposure” value ([2]; 90% CI of GMR for AUC0-t and AUC0-inf within no effect boundaries 80.00-125.00%) does the source give for `Cc1cc(S(=O)(=O)Nc2cscn2)c(F)cc1N(C)[C@H]1CCN(Cc2ccccc2)C1` [Compound A, (S)-4-((1-benzylpyrrolidin-3-yl)(methyl)amino)-2-fluoro-5-methyl-N-(thiazol-4-yl)benzenesulfonamide] here?
**A.** The value was “did not affect”.

**Q.** And the apparent clearance ([2]; Compound A alone)?
**A.** The apparent clearance was 5.4 L/h.

**Q.** What about the “apparent volume of distribution” value ([2]; Compound A alone) of the same molecule?
**A.** Its value is 89 L.

**Q.** What about the apparent clearance ([2]; Compound A with phenytoin) of the same molecule?
**A.** The apparent clearance was 5.7 L/h.

**Q.** What about the “apparent volume of distribution” value ([2]; Compound A with phenytoin) of the same molecule?
**A.** The value was 65 L.

**Q.** And the “increase of peak plasma concentration (Cmax)” value ([2]; co-administered with phenytoin 100 mg TID x 10 days vs Compound A alone)?
**A.** Its value is “approximately 22%”.

**Q.** What about the Cmax ([2]; oral, Compound A 100 mg alone, full sampling, read-out: mean Cmax) of the same molecule?
**A.** Its Cmax is 3300 ng/mL.

**Q.** What about the AUC ([2]; oral, Compound A 100 mg alone, truncated sampling) of the same molecule?
**A.** The AUC was 19900 ng·h/mL.

**Q.** What about the Cmax ([2]; oral, Compound A 100 mg alone, truncated sampling, read-out: Cmax) of the same molecule?
**A.** The Cmax was 3220 ng/mL.

**Q.** And the Tmax ([2]; oral, Compound A 100 mg alone, truncated sampling, read-out: Tmax)?
**A.** The Tmax was 1 h.

**Q.** And the Cmax ([2]; oral, Compound A 100 mg with phenytoin 100 mg TID x 10 days, full sampling, read-out: mean Cmax)?
**A.** The Cmax was 3720 ng/mL.

**Q.** What about the AUC ([2]; oral, Compound A with phenytoin 100 mg TID x 10 days, truncated sampling) of the same molecule?
**A.** Its AUC is 18600 ng·h/mL.

**Q.** What about the Cmax ([2]; oral, Compound A with phenytoin 100 mg TID x 10 days, truncated sampling, read-out: Cmax) of the same molecule?
**A.** The Cmax was 3680 ng/mL.

**Q.** And the Tmax ([2]; oral, Compound A with phenytoin 100 mg TID x 10 days, truncated sampling, read-out: Tmax)?
**A.** The Tmax was 1 h.

**Q.** What about the AUC(0-t) ([2]; oral, Compound A 100 mg + phenytoin 100 mg TID x 10 days, full sampling) of the same molecule?
**A.** Its AUC(0-t) is 17800 ng·h/mL.

**Q.** And the AUC(0-inf) ([2]; oral, Compound A 100 mg + phenytoin 100 mg TID x 10 days)?
**A.** The AUC(0-inf) was 18000 ng·h/mL.

**Q.** And the AUC(0-t) ([2]; oral, Compound A 100 mg alone, full sampling)?
**A.** Its AUC(0-t) is 19100 ng·h/mL.

**Q.** What about the AUC(0-inf) ([2]; oral, Compound A 100 mg alone) of the same molecule?
**A.** Its AUC(0-inf) is 19800 ng·h/mL.

**Q.** What about the Tmax ([2]; po, Compound A 100 mg single oral dose alone (Day 1), fasted, full sampling, read-out: time to peak plasma concentrations (Tmax)) of the same molecule?
**A.** The Tmax was ~1 h.

**Q.** And the Tmax ([2]; po, Compound A 100 mg single oral dose with phenytoin 100 mg TID for 10 days (Day 12), full sampling, read-out: time to peak plasma concentrations (Tmax))?
**A.** Its Tmax is ~1 h.

**Q.** And the half-life ([2]; po, Compound A alone)?
**A.** Its half-life is 10 h.

**Q.** And the half-life ([2]; po, Compound A with phenytoin)?
**A.** Its half-life is 8 h.

**Q.** What about the “difference in AUC0-inf” value [2, 4] of the same molecule?
**A.** Its value is ~7%.

**Q.** And the “difference in AUC0-t” value [2, 4]?
**A.** The value was “approximately 4%”.

**Q.** What about the “intra-subject CV % of AUC0-inf” value [2, 5] of the same molecule?
**A.** Its value is 22%.

**Q.** What about the “intra-subject CV % of AUC0-t” value [2, 5] of the same molecule?
**A.** Its value is 26%.

**Q.** And the “intra-subject CV % of Cmax” value [2, 5]?
**A.** The value was 53%.

**Q.** And the “AUC0-inf GMR” value ([2]; with/without phenytoin, 90% CI 81.75-105.23%)?
**A.** Its value is 92.75%.

**Q.** And the “AUC0-t GMR” value ([2]; with/without phenytoin, 90% CI 82.54-111.67%)?
**A.** Its value is 96.01%.

**Q.** And the “Cmax geometric mean ratio (GMR)” value ([2]; with/without phenytoin, 90% CI 90.94-162.38%)?
**A.** Its value is 121.52%.

**Q.** And the “mean amount excreted unchanged in urine” value [3, 6]?
**A.** Its value is 57186 ng.

**Q.** And the “mean percentage of dose excreted unchanged in urine” value [3, 6]?
**A.** The value was 0.06%.

**Q.** What about the “mean amount excreted unchanged in urine” value ([3]; Compound A 100 mg alone) of the same molecule?
**A.** The value was 71103 ng.

**Q.** What about the “mean percentage of dose excreted unchanged in urine” value ([3]; Compound A 100 mg alone) of the same molecule?
**A.** Its value is 0.07%.

**Q.** What about the CL renal ([3]; human, urine, oral, both treatments: presence (Day 12) or absence (Day 1) of phenytoin) of the same molecule?
**A.** The CL renal was 0.05 to 0.0667 mL/min.

**Q.** And the “CLr GMR” value ([3]; with/without phenytoin)?
**A.** The value was 100.25%.

**Q.** And the “incidence of subjects with TEAEs” value ([1]; Compound A alone on Day 1)?
**A.** Its value is 39%.

**Q.** What about the “incidence of subjects with TEAEs” value ([1]; Compound A in combination with phenytoin on Day 12) of the same molecule?
**A.** The value was 65%.

**Q.** And the “deaths or SAEs” value [1, 7]?
**A.** Its value is “No deaths or SAEs occurred”.

**Q.** What about the “subjects reporting a severe TEAE” value [1, 7] of the same molecule?
**A.** The value was “None”.

**Q.** What about the “metabolizing CYP enzymes” value (CYP3A4, CYP2D6, CYP2C9) of the same molecule?
**A.** The value was “metabolized by CYP3A4, CYP2D6, and to a lesser extent CYP2C9”.
